The record followed here is patent US5140040A, “1-aminomethyl-1,2,3,4-tetrahydronaphthalenes” (Abbott Laboratories, priority 1991, dated 1992).

Structures can show the parent of a compound that is named as a salt.

What is called Ki is a dissociation constant, usually derived from enzyme kinetics or from competition with a known ligand.

The target in this assay is alpha-2-receptor. Put plainly: Radioligand binding, alpha-2 adrenoceptor, rat cerebral cortices, [^3 H]-rauwolscine. To be noted: for Ki: rat cerebral cortices, [^3 H]-rauwolscine; for alpha-2 - Selectivity Ki alpha-1/Ki alpha 2: ratio of Ki alpha-1 to Ki alpha-2. The method, then: The compounds were assessed for alpha-adrenergic receptor subtype selectivity by use of radioligand binding techniques as described previously (DeBernardis et.al. J. Med. Chem. 28, 1398 (1985)).

For `COc1ccc2c(c1)CCCC2CN(C)CCc1ccsc1` (stereo not shown) [Example 6d, 1--((N-methylamino)methyl N-(2-(3-thienyl)ethyl))-6-methoxy tetralin hydrochloride], the affinity corresponds to a Ki of 1.5 nM and the “alpha-2 - Selectivity Ki alpha-1/Ki alpha 2” value turned out to be 333.

For the molecule `COc1ccc2c(c1)CCCC2CN(C)CCC1CCCC1` (stereo not shown) [Example 6f, 1-((N-methylamino)methyl N-(2-(cyclopentyl)ethyl)) 6-methoxy tetralin hydrochloride], the Ki came out at 6.5 nM and the “alpha-2 - Selectivity Ki alpha-1/Ki alpha 2” value is reported as 332.

Consider `COc1ccc2c(c1)CCCC2CN(C)CCC1CCCS1` (stereo not shown) [Example 6h, 1-((N-methylamino)methyl-N-(2-(2-tetrahydrothienyl)ethyl))-6-methoxy tetralin hydrochloride], for which affinity was put at a Ki of 3.5 nM and the “alpha-2 - Selectivity Ki alpha-1/Ki alpha 2” value was 430.

On to `CN(CCc1cccs1)CC1CCCc2cc(O)ccc21` (stereo not shown) [Example 7, 1-((N-Methylamino)methyl-N(2-(2-thienyl)ethyl))-6-hydroxy tetralin hydrochloride], for which the Ki was 1.6 nM and the “alpha-2 - Selectivity Ki alpha-1/Ki alpha 2” value was 353.

Turning to `COc1ccc2c(c1)CCCC2CN(C)CCc1cccn1C` (stereo not shown) [Example 12, 1-((N-Methylamino)methyl-N-(2-(N-methyl2-pyrrolyl)-ethyl))-6-methoxy tetralin fumarate], affinity was put at a Ki of 5 nM and the “alpha-2 - Selectivity Ki alpha-1/Ki alpha 2” value was 242.

With `CN(CCc1cccs1)CC1CCCc2ccccc21` (stereo not shown) [Example 22, 1-((N-Methylamino)methyl-N-(2-(2-thienyl)ethyl)) tetralin hydrochloride], the Ki was 1.3 nM and the “alpha-2 - Selectivity Ki alpha-1/Ki alpha 2” value turned out to be 535.

As for `CN(CCc1cccs1)CC1CCCc2c1ccc1c2OCO1` (stereo not shown) [Example 23, 1-((N-Methylamino)methyl-N-(2-(2-thienyl)ethyl))-5,6-methylenedioxy tetralin hydrochloride], the Ki was 1.7 nM and the “alpha-2 - Selectivity Ki alpha-1/Ki alpha 2” value is listed as 262.

Take `COc1cc2c(c(OC)c1)C(CN(C)CCc1cccs1)CCC2` (stereo not shown) [Example 26, 1-((N-Methylamino)methyl-N-(2-(2-thienyl)ethyl))-6,8-dimethoxy tetralin hydrochloride]: affinity was put at a Ki of 0.6 nM and the “alpha-2 - Selectivity Ki alpha-1/Ki alpha 2” value is 292.

Regarding `COc1ccc2c(c1)C(CN(C)CCc1cccs1)CCC2` (stereo not shown) [Example 27, 1-((N-Methylamino)methyl-N-(2-(2-thienyl)ethyl))-7-methoxy tetralin hydrochloride], the Ki is 2 nM and the “alpha-2 - Selectivity Ki alpha-1/Ki alpha 2” value is reported as 263.

As to `COc1ccc(C)c2c1CCCC2CN(C)CCc1cccs1` (stereo not shown) [Example 36, 1-(N-Methylamino)methyl-N-(2-(2-thienyl)ethyl))-5-methoxy-8-methyl tetralin hydrochloride], the affinity corresponds to a Ki of 6.9 nM and the “alpha-2 - Selectivity Ki alpha-1/Ki alpha 2” value amounted to 95.

In the case of `COc1ccc2c(c1)CCC2CN(C)CCc1cccs1` (stereo not shown) [Example 37, 1-((N-Methylamino)methyl-N-(2-(2-thienyl)ethyl))-5-methoxy indane hydrochloride], the affinity, expressed as Ki, was 3.7 nM and the “alpha-2 - Selectivity Ki alpha-1/Ki alpha 2” value is 174.

As to `CCN(CCc1cccc(F)c1)CC1CCCc2cc(OC)ccc21` (stereo not shown) [Example 42, 1-((N-Ethylamino)methyl-N-(2-(m-fluorophenyl)ethyl))-6-methoxy tetralin hydrochloride], the Ki was 6.6 nM and the “alpha-2 - Selectivity Ki alpha-1/Ki alpha 2” value is 159.

As for `CCN(CCc1ccco1)CC1CCCc2cc(OC)ccc21` (stereo not shown) [Example 43, 1-((N-Ethylamino)methyl-N-(2-(2-furyl)ethyl))-6-methoxy tetralin hydrochloride], the affinity, expressed as Ki, was 6 nM and the “alpha-2 - Selectivity Ki alpha-1/Ki alpha 2” value amounted to 233.

As for `CCCN(CCc1cccs1)CC1CCCc2cc(OC)ccc21` (stereo not shown) [Example 58, 1-((N propylamino)methyl)-N-(2-(2-thienyl)ethyl))-6-methoxy tetralin hydrochloride], the affinity corresponds to a Ki of 18 nM and the “alpha-2 - Selectivity Ki alpha-1/Ki alpha 2” value was found to be 102.

Regarding `COc1ccc2c(c1)CCCC2CN(C)CCc1cccc(N)c1` (stereo not shown) [Example 67, 1 ((N-Methylamino)methyl-N-(2-(maminophenyl)ethyl))-6-methoxy tetralin dihydrochloride], affinity was put at a Ki of 6 nM and the “alpha-2 - Selectivity Ki alpha-1/Ki alpha 2” value is 195.

On to `CN(CCc1cccc(N)c1)CC1CCCc2cc(O)ccc21` (stereo not shown) [Example 68, 1-((N-Methylamino)methyl N-(2-(m-aminophenyl)ethyl))-6-hydroxy tetralin dihydrobromide], for which the affinity corresponds to a Ki of 6 nM and the “alpha-2 - Selectivity Ki alpha-1/Ki alpha 2” value amounted to 196.

As to `CCOc1ccc2c(c1)CCCC2CN(C)CCc1cccc(N)c1` (stereo not shown) [Example 69, 1-((N-Methylamino)methyl-N-(2-(m-aminophenyl)ethyl))-6-ethoxy tetralin dihydrochloride], the Ki was determined as 13 nM and the “alpha-2 - Selectivity Ki alpha-1/Ki alpha 2” value is 98.

As to `CN(CCc1cccc(F)c1)CC1CCCc2ccccc21` (stereo not shown) [Example 70, 1-((N-Methylamino)methyl-N-(2-(m-fluorophenyl)ethyl))-tetralin hydrochloride], the Ki came out at 5 nM and the “alpha-2 - Selectivity Ki alpha-1/Ki alpha 2” value came out at 105.

As to `CN(CCc1cccc(O)c1)CC1CCCc2cc(O)ccc21` (stereo not shown) [Example 82, 1-((N-Methylamino)methyl-N-(2-(m-hydroxyphenyl)ethyl))-6-hydroxy tetralin hydrochloride], the affinity corresponds to a Ki of 4 nM and the “alpha-2 - Selectivity Ki alpha-1/Ki alpha 2” value is 124.

Consider `COc1ccc2c(c1)CCCC2CN(C)CCc1cccc(O)c1` (stereo not shown) [Example 83, 1-((N-Methylamino)methyl-N-(2-(m-hydroxyphenyl)ethyl))-6-methoxy tetralin hydrochloride], for which the Ki was 8 nM and the “alpha-2 - Selectivity Ki alpha-1/Ki alpha 2” value is 119.

`CN(CCc1cccc(F)c1)CC1CCCc2c1ccc(O)c2O` (stereo not shown) [Example 85, 1-((N-Methylamino)methyl-N-(2-(m-fluorophenyl)ethyl))-5,6-dihydroxy tetralin hydrochloride]: the Ki came out at 1.5 nM and the “alpha-2 - Selectivity Ki alpha-1/Ki alpha 2” value worked out at 173.

As for `COc1ccc2c(c1OC)CCCC2CN(C)CCc1cccs1` (stereo not shown) [Example 86, 1-((N-Methylamino)methyl-N-(2-(2-thienyl)ethyl))-5,6-dimethoxy tetralin hydrochloride], the Ki was found to be 3 nM and the “alpha-2 - Selectivity Ki alpha-1/Ki alpha 2” value was found to be 165.

For the molecule `CN(CCc1cccs1)CC1CCCc2c1ccc(O)c2O` (stereo not shown) [Example 87, 1-((N-Methylamino)methyl-N-(2-(2-thienyl)ethyl))-5,6-dihydroxy tetralin hydrochloride], the Ki was found to be 1.6 nM and the “alpha-2 - Selectivity Ki alpha-1/Ki alpha 2” value was found to be 278.

With `CN(CCc1ccccc1)CC1CCCc2ccccc21` (stereo not shown) [Example 88, 1-(N-Methylamino)methyl-N-(2-phenethyl)) tetralin hydrochloride], the Ki amounted to 2 nM and the “alpha-2 - Selectivity Ki alpha-1/Ki alpha 2” value is 158.

Take `CN(CCc1ccccc1)CC1CCCc2cc(N)ccc21` (stereo not shown) [Example 114, 1-((N-Methylaminomethyl-N-(2-phenylethyl))-6-aminotetralindihydrochloride]: the inhibition constant Ki turned out to be 5.7 nM and the “alpha-2 - Selectivity Ki alpha-1/Ki alpha 2” value is listed as 127.

For `CN(CCc1cccs1)CC1CCCc2c1ccc(O)c2I` (stereo not shown) [Example 115, 1-((N-Methylamino)methyl-N-(2-(2-thienyl)ethyl))-5-iodo-6-hydroxy tetralin hydrochloride], the affinity corresponds to a Ki of 3 nM and the “alpha-2 - Selectivity Ki alpha-1/Ki alpha 2” value amounted to 177.

In the case of `COc1ccc2c(c1)CCCC2CN1CCC(c2ccccc2)C1` (stereo not shown) [Example 121, 6-Methoxy-1-(3-phenylpyrrolidino-1-methyl) tetralin hydrochloride], the affinity, expressed as Ki, was 1 nM and the “alpha-2 - Selectivity Ki alpha-1/Ki alpha 2” value stood at 95.

In the case of `COc1cc2c(cc1C)C(CN(C)CCc1ccco1)CCC2` (stereo not shown) [Example 128, 1-((N-Methylamino)methyl-N-(2-(2-furyl)ethyl))-6-methoxy 7-methyl tetralin hydrochloride], the affinity corresponds to a Ki of 8 nM and the “alpha-2 - Selectivity Ki alpha-1/Ki alpha 2” value stood at 107.

With `CN(CCc1cccs1)CC1CCCc2c(Cl)cccc21` (stereo not shown) [Example 129, 1-((N-Methylamino)methyl-N-(2-(2-thieny)ethyl))-5-chloro tetralin hydrochloride], the Ki stood at 3.6 nM and the “alpha-2 - Selectivity Ki alpha-1/Ki alpha 2” value is reported as 55.

As for `COc1cc2c(cc1F)C(CN(C)CCc1ccco1)CCC2` (stereo not shown) [Example 141, 1-((N-methylamino)methyl-N-(2-(2-furyl)ethyl))-6-methoxy-7-fluoro tetralin methanesulfonate], the Ki is 4.8 nM and the “alpha-2 - Selectivity Ki alpha-1/Ki alpha 2” value is 183.

Consider `c1csc(C2CCN(CC3CCCc4c3ccc3c4OCO3)C2)c1` (stereo not shown) [Example 144, 5,6-Methylenedioxy-1-(3-(2-thienyl)pyrrolidino-1-methyl) tetralin methanesulfonate], for which the Ki was 1.2 nM and the “alpha-2 - Selectivity Ki alpha-1/Ki alpha 2” value was found to be 204.

In the case of `COc1cccc2c1CCCC2CN1CCC(c2cccs2)C1` (stereo not shown) [Example 146, 5-Methoxy1-(3-(2-thienyl)pyrrolidino-1-methyl) tetralin hydrochloride], the Ki was 4.9 nM and the “alpha-2 - Selectivity Ki alpha-1/Ki alpha 2” value was 35.

For the molecule `Fc1ccc2c(c1)CCCC2CN1CCC(c2ccccc2)C1` (stereo not shown) [Example 148, 6-Fluoro-1-(3-phenylpyrrolidino-1-methyl) tetralin methanesulfonate], the Ki was 6.5 nM and the “alpha-2 - Selectivity Ki alpha-1/Ki alpha 2” value turned out to be 19.

As to `COc1ccc2c(c1)CCC2CN1CCC(c2cccs2)C1` (stereo not shown) [Example 151, 5-Methoxy1-(3-(2-thienyl)pyrrolidino-1-methyl) indane hydrochloride], the affinity, expressed as Ki, was 2.5 nM and the “alpha-2 - Selectivity Ki alpha-1/Ki alpha 2” value is 71.

As to `COc1ccc2c(c1)CCC2CN1CCC(c2cccc(F)c2)C1` (stereo not shown) [Example 153, 5-Methoxy-1-(3-(m-fluorophenyl)pyrrolidino-1-methyl) indane hydrochloride], affinity was put at a Ki of 8.6 nM and the “alpha-2 - Selectivity Ki alpha-1/Ki alpha 2” value was determined as 7.
